# From ChEMBL document CHEMBL5715936, “Selective Itk inhibitors block T-cell activation and murine lung inflammation” (Biochemistry, 2004)
# Calls of active or inactive are those of the source. No cut-off for these calls is given here.
# How the values were obtained:
# Mus musculus [1] = assay: In vivo inhibition of IL-2 production in Balb/c mouse serum administered for 15 mins in presence of anti-CD3 antibody by ELISA analysis; assay type: functional, organism-based; details: dose 50-100 mg/kg, route sc
# [2] = biological target: T1, Cytoplasmic tyrosine-protein kinase BMX (Homo sapiens, UniProt P51813); assay: Inhibition of Bmx (unknown origin) using GST-SLP-76 as peptide substrate incubated for 10 mins in presence of [gamma-33P]ATP by scintillation counter assay
# T1 sequence (P51813 whole entry): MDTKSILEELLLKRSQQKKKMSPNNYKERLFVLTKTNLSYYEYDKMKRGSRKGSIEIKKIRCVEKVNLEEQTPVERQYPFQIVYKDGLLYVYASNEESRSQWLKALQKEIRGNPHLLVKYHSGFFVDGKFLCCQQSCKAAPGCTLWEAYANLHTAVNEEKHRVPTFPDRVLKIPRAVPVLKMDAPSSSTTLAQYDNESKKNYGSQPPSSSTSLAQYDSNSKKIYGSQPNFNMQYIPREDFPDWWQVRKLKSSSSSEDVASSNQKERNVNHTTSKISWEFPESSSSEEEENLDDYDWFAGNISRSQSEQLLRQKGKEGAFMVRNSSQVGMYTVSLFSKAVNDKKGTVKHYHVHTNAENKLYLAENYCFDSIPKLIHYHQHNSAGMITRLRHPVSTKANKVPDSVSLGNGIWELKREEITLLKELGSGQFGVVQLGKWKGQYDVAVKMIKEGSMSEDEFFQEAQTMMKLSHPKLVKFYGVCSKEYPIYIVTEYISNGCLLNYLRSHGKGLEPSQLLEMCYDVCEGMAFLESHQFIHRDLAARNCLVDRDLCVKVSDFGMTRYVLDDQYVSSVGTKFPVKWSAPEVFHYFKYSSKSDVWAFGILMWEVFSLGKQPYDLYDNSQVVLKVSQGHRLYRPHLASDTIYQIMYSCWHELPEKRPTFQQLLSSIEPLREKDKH
# [3] = biological target: T2, Tyrosine-protein kinase ITK/TSK (Homo sapiens) (UniProt Q08881); assay: Inhibition of Itk in EGF-stimulated human A549 cells assessed as reduction in tyrosine phosphorylation at <=10 uM incubated for 20 mins by Western blotting analysis; assay type: cell-based
# T2 sequence (whole entry): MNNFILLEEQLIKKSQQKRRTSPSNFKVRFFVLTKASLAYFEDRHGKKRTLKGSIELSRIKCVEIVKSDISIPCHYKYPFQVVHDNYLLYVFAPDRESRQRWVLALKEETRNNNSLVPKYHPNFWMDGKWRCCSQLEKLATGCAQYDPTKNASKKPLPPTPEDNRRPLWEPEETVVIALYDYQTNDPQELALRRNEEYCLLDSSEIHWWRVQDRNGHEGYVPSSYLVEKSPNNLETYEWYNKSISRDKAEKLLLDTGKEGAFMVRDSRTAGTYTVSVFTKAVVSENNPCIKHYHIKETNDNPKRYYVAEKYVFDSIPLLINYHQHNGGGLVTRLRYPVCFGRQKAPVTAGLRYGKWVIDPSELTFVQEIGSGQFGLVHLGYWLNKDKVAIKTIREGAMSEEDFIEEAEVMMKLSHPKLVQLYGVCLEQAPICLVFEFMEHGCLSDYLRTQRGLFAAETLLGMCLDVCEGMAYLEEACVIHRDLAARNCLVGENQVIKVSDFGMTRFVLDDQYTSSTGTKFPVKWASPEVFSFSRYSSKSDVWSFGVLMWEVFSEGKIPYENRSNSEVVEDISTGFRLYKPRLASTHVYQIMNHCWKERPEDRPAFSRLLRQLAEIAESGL
# [4] = biological target: T2, Tyrosine-protein kinase ITK/TSK (Homo sapiens); assay: Inhibition of Itk in human Jurkat T cells assessed as inhibition of IL-2 secretion incubated for 16 hrs in presence of anti-CD3 antibody G19-4 by ELISA analysis; assay type: cell-based
# [5] = biological target: Tyrosine-protein kinase SYK (Homo sapiens, UniProt P43405); assay: Inhibition of Syk (unknown origin) using GST-SLP-76 as peptide substrate incubated for 10 mins in presence of [gamma-33P]ATP by scintillation counter assay
# [6] = biological target: Tyrosine-protein kinase Fyn (Homo sapiens, UniProt P06241); assay: Inhibition of Fyn (unknown origin) using GST-SLP-76 as peptide substrate incubated for 10 mins in presence of [gamma-33P]ATP by scintillation counter assay
# [7] = biological target: T2, Tyrosine-protein kinase ITK/TSK (Homo sapiens); assay: Inhibition of Itk in human PBMC cells assessed as inhibition of IL-2 secretion incubated for 16 hrs in presence of anti-CD3 antibody G19-4 by ELISA analysis; assay type: cell-based
# [8] = biological target: T3, Tyrosine-protein kinase Tec (Homo sapiens, UniProt P42680); assay: Inhibition of Tec (unknown origin) using GST-SLP-76 as peptide substrate incubated for 10 mins in presence of [gamma-33P]ATP by scintillation counter assay
# T3 sequence (P42680 whole entry): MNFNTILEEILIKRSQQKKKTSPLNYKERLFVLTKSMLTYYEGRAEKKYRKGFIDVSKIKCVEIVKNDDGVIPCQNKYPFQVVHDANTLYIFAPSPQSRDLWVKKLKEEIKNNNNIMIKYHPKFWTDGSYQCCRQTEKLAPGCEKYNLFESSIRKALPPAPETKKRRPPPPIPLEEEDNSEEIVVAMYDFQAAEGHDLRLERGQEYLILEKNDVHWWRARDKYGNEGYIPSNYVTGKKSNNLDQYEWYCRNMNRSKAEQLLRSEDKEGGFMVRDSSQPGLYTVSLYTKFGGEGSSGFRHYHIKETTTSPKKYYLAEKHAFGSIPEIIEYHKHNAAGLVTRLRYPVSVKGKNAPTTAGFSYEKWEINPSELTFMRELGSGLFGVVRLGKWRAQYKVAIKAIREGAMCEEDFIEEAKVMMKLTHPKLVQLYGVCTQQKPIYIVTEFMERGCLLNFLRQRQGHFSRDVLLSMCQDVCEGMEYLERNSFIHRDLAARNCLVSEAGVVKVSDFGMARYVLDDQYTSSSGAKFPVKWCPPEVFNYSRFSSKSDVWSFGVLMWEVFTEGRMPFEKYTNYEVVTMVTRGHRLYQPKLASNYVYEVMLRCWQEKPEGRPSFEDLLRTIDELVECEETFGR
# [9] = biological target: T2, Tyrosine-protein kinase ITK/TSK (Homo sapiens); assay: Inhibition of Itk in human Jurkat T cells assessed as inhibition of tyrosine phosphorylation with 145 kDa molecular weight at 0.1 to 10 uM incubated for 20 mins in presence of CD3 antibody G19-4 by Western blotting analysis; assay type: cell-based; details: dose 0.1-10 µM
# [10] = biological target: Tyrosine-protein kinase BTK (Homo sapiens, UniProt Q06187); assay: Inhibition of Btk (unknown origin) using GST-SLP-76 as peptide substrate incubated for 10 mins in presence of [gamma-33P]ATP by scintillation counter assay
# Mus musculus [11] = assay: Anti-inflammatory activity against ovalbumin induced Balb/c mouse bronchoalveolar lavage assessed as reduction in total cell infiltration administered twice daily for 3 days by microscopic analysis; assay type: functional, organism-based; details: dose 5-25 mg/kg, route sc, time 3.0 day
# Mus musculus [12] = assay: Anti-inflammatory activity against ovalbumin induced Balb/c mouse bronchoalveolar lavage assessed as reduction in eosinophil infiltration administered twice daily for 3 days by microscopic analysis; assay type: functional, organism-based; details: dose 5-25 mg/kg, route sc, time 3.0 day
# [13] = biological target: Cyclin-dependent kinase 2 (Homo sapiens, UniProt P24941); assay: Inhibition of Cdk2 (unknown origin) using GST-SLP-76 as peptide substrate incubated for 10 mins in presence of [gamma-33P]ATP by scintillation counter assay
# Tyrosine-protein kinase BTK, sequence (Q06187 whole entry): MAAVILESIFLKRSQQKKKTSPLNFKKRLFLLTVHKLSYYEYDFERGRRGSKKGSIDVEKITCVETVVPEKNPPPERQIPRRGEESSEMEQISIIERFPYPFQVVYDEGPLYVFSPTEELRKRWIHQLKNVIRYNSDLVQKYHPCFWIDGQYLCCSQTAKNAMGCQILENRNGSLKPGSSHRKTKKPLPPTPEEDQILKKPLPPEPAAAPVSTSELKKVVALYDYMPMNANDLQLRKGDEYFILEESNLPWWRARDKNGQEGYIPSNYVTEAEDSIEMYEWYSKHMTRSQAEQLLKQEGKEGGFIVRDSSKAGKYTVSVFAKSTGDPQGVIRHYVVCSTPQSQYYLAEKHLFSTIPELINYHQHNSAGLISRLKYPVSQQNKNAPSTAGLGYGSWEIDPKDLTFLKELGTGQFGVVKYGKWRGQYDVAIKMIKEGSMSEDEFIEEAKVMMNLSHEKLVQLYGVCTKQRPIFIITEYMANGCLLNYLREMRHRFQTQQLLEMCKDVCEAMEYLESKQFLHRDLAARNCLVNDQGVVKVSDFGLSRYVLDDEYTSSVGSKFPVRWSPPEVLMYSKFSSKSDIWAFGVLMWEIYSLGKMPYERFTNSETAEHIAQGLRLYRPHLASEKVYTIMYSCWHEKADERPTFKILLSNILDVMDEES
# Tyrosine-protein kinase Fyn, sequence (P06241 whole entry): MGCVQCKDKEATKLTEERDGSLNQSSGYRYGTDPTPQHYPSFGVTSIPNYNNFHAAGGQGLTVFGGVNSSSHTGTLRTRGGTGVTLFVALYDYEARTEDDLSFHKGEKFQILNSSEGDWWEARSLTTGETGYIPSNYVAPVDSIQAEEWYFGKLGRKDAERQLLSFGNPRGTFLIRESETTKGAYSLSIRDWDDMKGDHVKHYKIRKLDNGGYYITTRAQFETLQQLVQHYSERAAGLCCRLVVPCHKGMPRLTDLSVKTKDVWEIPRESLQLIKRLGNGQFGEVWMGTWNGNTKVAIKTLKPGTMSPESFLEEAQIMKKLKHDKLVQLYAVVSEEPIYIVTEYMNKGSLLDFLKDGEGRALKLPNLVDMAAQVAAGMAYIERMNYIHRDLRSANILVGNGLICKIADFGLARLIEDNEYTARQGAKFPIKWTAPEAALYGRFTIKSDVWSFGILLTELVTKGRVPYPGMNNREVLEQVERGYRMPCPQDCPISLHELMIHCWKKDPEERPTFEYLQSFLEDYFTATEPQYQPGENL
SMILES,inhibition (Mus musculus [1]),IC50 [2],inhibition [3],inhibition [4],IC50 [5],IC50 [6],inhibition [7],IC50 [8],inhibition [9],IC50 [10],Activity (Mus musculus [11]),Activity (Mus musculus [12]),IC50 [13]
CC(=O)N1CCN(C(=O)c2cc(CSc3cnc(NC(=O)c4ccc(CNC(C)C(C)(C)C)cc4)s3)cc(C)c2C)CC1 (stereo not given),Dose-Dependent Effect,> 50 µM,Active,Dose-Dependent Effect,> 50 µM,8.6 µM,Dose-Dependent Effect,> 50 µM,Active,> 50 µM,,,
COc1cc(C)c(Sc2cnc(NC(=O)c3ccc(CNC(C)C(C)(C)C)cc3)s2)cc1C(=O)N1CCN(C(C)=O)CC1 (stereo not given),,> 50 µM,Active,,> 50 µM,1.1 µM,,17 µM,Active,4.1 µM,Dose-Dependent Effect,Dose-Dependent Effect,29 µM
